Measurements reported in ChEMBL document CHEMBL2176940, “Discovery of ligands for ADP-ribosyltransferases via docking-based virtual screening” (J Med Chem, 2012).

Target: T1, Protein mono-ADP-ribosyltransferase PARP15 (Homo sapiens) (UniProt Q460N3)
T1 sequence (whole entry): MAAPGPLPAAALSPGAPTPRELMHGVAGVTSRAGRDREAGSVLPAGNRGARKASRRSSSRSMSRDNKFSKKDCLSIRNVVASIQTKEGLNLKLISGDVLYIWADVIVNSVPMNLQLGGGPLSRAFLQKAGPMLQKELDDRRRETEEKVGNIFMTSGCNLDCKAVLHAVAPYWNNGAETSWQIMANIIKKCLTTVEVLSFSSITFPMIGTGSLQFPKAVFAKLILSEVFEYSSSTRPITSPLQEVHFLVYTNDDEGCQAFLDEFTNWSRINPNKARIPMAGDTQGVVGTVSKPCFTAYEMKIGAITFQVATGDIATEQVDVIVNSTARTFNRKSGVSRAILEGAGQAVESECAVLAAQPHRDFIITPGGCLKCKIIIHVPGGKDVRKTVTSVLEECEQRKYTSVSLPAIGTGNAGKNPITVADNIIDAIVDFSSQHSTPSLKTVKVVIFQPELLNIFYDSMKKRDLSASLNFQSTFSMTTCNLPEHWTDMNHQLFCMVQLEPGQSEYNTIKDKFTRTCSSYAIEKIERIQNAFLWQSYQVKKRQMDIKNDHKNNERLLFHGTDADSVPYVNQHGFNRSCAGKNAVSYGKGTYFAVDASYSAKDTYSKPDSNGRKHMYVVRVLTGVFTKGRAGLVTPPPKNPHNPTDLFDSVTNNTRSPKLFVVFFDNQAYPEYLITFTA
Description: Binding affinity at human recombinant ARTD7 expressed in Escherichia coli BL21 (DE3) R3 pRARE cells assessed as thermal stability shift by differential scanning fluorimetry

ΔTm: 0.8 °C
SMILES: NC(=O)c1cccc(NC(=O)/C=C\C(=O)O)c1
